Source: patent US20130123358A1, “Metabolic Benefits to Butyrate as a Chronic Diet Supplement” (priority 2009, published 2013)

What was measured:
[1] = tested on: IRS-1 and Akt phosphorylation; test: Insulin signaling immunoblot in gastrocnemius muscle after insulin injection; type: in vivo, mouse; conditions: butyrate 5% w/w in HFD 13 weeks, 30 min after insulin 0.75 U/kg
Text: Fresh fat and muscles were collected and frozen in liquid nitrogen. The whole cell lysate protein was extract in lysis buffer with sonication and analyzed in western blot as described elsewhere (16). Antibodies were used in study of myoglobin (sc-25607, Santa Cruz), PGC-1 (sc-13068, Santa Cruz), Tubulin (ab7291, Abcam), myosin (M8421, Sigma), pAMPK (Thr 172, #2531, Cell signaling) and p-p38 (sc-7975, Santa Cruz). To detect multiple signals from one membrane, the membrane was stripped with a stripping buffer. Intensity of the immunoblot signal was quantified using a computer program, ImageJ 1.37v (NIH). The mean values of results from three experiments (6 mice each group) were presented. The antibodies to PGC-1α and UCP-1 were from Dr. Thomas Gettys at Pennington Biomedical Research Center, Baton Rouge, La.
Tail vein blood was used for the glucose assay after 16 hr fasting during the period of HFD feeding. […] The insulin was determined at 16 weeks on HFD in fasting condition with Lincoplex kit (#MADPK-71k-03, Linco Research Inc., St. Charles, Mo.). […] After an overnight fast, blood glucose and insulin were measured and used to determine insulin sensitivity through HOMA IR (IR=fasting insulin […] X fasting glucose mg/dL÷405). […] FIG. 2F illustrates the degree of the blot signal in the panel 2E, by quantifying the signal and normalizing with protein loading. **P<0.001 (n=2).

[2] = tested on: epididymal fat pad; test: White adipose tissue: fat pad morphology and gene expression; type: in vivo, mouse
Procedure: Total RNA was extracted from frozen tissues (kept at −80° C.) using Tri-Reagent (T9424, Sigma) as described elsewhere (16). Taqman RT-PCR primer and probe were used to determine mRNA for PGC-1α (Mm00447183_m1), UCP-1 (Mm00494069_m1), PPARδ (Mm01305434_m1) and CPT1b (Mm00487200_m1). The reagents were purchased from Applied Biosystems (Foster City, Calif.). Mouse ribosome 18S rRNA_s1 (without intron-exon junction) was used as an internal control. Reaction was conducted with 7900 HT Fast real time PCR System (Applied Biosystems, Foster City, Calif.).
Fresh tissues (muscle, fat and liver) were collected at 16 weeks of age after 12 weeks butyrate feeding and fixed in 10% neutral buffered formalin solution (HT50-1-2, Sigma). The tissue slides were obtained through serial cross-section cutting at 8 um thickness and processed with a standard procedure. Briefly, the slides were deparaffinated and stained in haematoxylin (#101542, Surgipath) for 15 min, and rinsed in water until sections are blue. Then, slides were stained in Eosin (E4009, Sigma), dehydrated quickly in 95% ethanol and treated with […]. The sections were mounted and photographed with Nikon microscope (Eclipse TS100, Japan).
The epididymal fat pad was examined to test this effect of butyrate. The tissue was collected at 13 weeks on HFD (18 weeks in age) and used to make a tissue slide (FIG. 3A). After H&E staining, the slide was photographed under a microscope at magnification 20× (FIG. 3A). Gene expression was determined by qRT-PCR at day 8 after induction of cell differentiation of 3T3-L1 cells. Butyrate was used at 100 uM during induction of adipogenesis. Triglycerides in the 3T3-L1 mature adipocyte cells were quantified using Oil red 0 staining at the day 8 post-induction of differentiation (FIG. 3C). In addition, levels of mRNA for leptin, adiponectin, F4/80 (macrophage marker), TNF-α, and iNOS were determined in the epididymal fat and their relative levels are presented in bar figures (FIGS. 3D-3H). In FIGS. 3A-3H, data are represented as mean±SE (n=8). *P<0.05, **P<0.001.

[3] = tested on: obese C57BL/6J mice on HFD; test: Treatment of obese mice (16 weeks HFD) with butyrate for 5 weeks; type: in vivo, mouse
Procedure: In the above examples, butyrate was administrated together with HFD during the induction of obesity. To test butyrate in the treatment of obesity and insulin resistance, butyrate was administered to obese mice that had been on HFD for 16 weeks. Obesity was induced in C57BL/6J mice fed on HFD for 16 weeks (21 weeks in age). The obese mice were then treated with butyrate through food supplement for 5 weeks. […] In the control group, the body weight was increased by 15.8% (from 35.9 g to 41.6 g) during the same time period. Values are the means±SE (N=8 in each group). * P<0.05.
Fat content was determined in the body using NMR at the end of 5 week treatment with butyrate. Consistent with the change in body weight, the fat content was reduced by 10% in the butyrate group (FIG. 9B). At the end of 5 weeks, ITT was performed after 4 hours fast and HOMA IR was measured as described above. […] Values are the means±SE (N=8 in each group). * P<0.05.

[4] = tested on: C57BL/6J mice on high fat diet; test: Butyrate at 2.5% w/w in HFD; type: in vivo, mouse; conditions: butyrate 2.5% w/w in HFD
Procedure: Sodium butyrate (#303410, Sigma) was tested at two dosages, 5% and 2.5% w/w in HFD. The metabolic effects presented above were from 5%. […] Insulin sensitivity at 12 weeks as indicated by insulin tolerance test (ITT) and glucose tolerance test (GTT) at 13 weeks was higher in the butyrate group than that of the control group (FIGS. 12C and 12D). For the glucose tolerance test, after an overnight fast, 2.5 g/kg glucose was injected intraperitoneally. Blood glucose was measured as described above at 0, 30, 60 and 120 min after injection. […] show values as the means±SE (N=8 in each group), and * indicates p<0.05.

[5] = tested on: islet cells; conditions: isolated rat islet cells; cited from earlier work
[6] = butyrate 5% w/w in HFD vs control, mRNA

**Q.** For CCCC(=O)[O-].[Na+] [sodium butyrate], which “threonine 308 phosphorylation of Akt” value [1] is on record?
**A.** The value was “increased”.

**Q.** What about the “tyrosine 632 (Y632) phosphorylation of IRS-1” value [1] of the same compound?
**A.** Its value is “increased”.

**Q.** And the “TNF-α expression in epididymal fat” value [2, 6]?
**A.** The value was “reduced”.

**Q.** What about the “iNOS expression in epididymal fat” value [2, 6] of the same compound?
**A.** The value was “reduced”.

**Q.** What about the “leptin expression in epididymal fat” value [2, 6] of the same compound?
**A.** Its value is “lower level”.

**Q.** What about the “macrophage marker F4/80 expression in epididymal fat” value [2, 6] of the same compound?
**A.** Its value is “reduced”.

**Q.** What about the “epididymal fat pad mass, less than control” value ([2]; butyrate 5% w/w in HFD, 13 weeks) of the same compound?
**A.** Its value is 80%.

**Q.** What about the “adipocyte size, smaller than control” value ([2]; butyrate 5% w/w in HFD, 13 weeks, H&E) of the same compound?
**A.** The value was 50%.

**Q.** What about the “adiponectin expression in epididymal fat, higher than control” value ([2]; butyrate 5% w/w in HFD, mRNA) of the same compound?
**A.** Its value is 50%.

**Q.** What about the “HOMA-IR, reduction” value ([3]; 5-week butyrate treatment) of the same compound?
**A.** The value was 50%.

**Q.** What about the “fasting glucose, reduction” value ([3]; 5-week butyrate treatment) of the same compound?
**A.** Its value is 30%.

**Q.** And the “fasting glucose after treatment” value ([3]; 5-week butyrate treatment, from 131)?
**A.** Its value is 98.6 mg/dL.

**Q.** And the “loss of original body weight” value ([3]; 5-week treatment with butyrate in food)?
**A.** Its value is 10.2%.

**Q.** And the ITT ([3]; end of 5-week butyrate treatment, 4 hours fast)?
**A.** Its ITT is “improved significantly”.

**Q.** What about the “fat content, reduction” value ([3]; end of 5-week butyrate treatment, NMR) of the same compound?
**A.** The value was 10%.

**Q.** And the “body weight after treatment” value ([3]; end of 5-week butyrate treatment, from 37.6 g)?
**A.** The value was 34.4 g.

**Q.** What about the body weight ([4]; 12 weeks) of the same compound?
**A.** The body weight was “reduced”.

**Q.** What about the “insulin sensitivity by insulin tolerance test (ITT)” value ([4]; 12 weeks) of the same compound?
**A.** Its value is “higher”.

**Q.** What about the fat content ([4]; 12 weeks, NMR) of the same compound?
**A.** Its fat content is “reduced”.

**Q.** And the “insulin sensitivity by glucose tolerance test (GTT)” value ([4]; 13 weeks, 2.5 g/kg glucose i.p.)?
**A.** The value was “higher”.

**Q.** And the “cell viability (islet cells)” value [5]?
**A.** Its value is “decrease”.

**Q.** And the “insulin release in the presence of glucose (islet cells)” value [5]?
**A.** Its value is “decrease”.
